{"source": "the CheMixHub viscosity set", "experiment": "xn = mol fraction of the nth substance listed", "note": "± gives the uncertainty stated by the source."}
{"smiles": "CC(=O)OCc1ccccc1", "note": "+ CCCCO", "values": [{"measurement": "viscosity", "setting": "293.15 K, 101.33 kPa, x1 = 0.1023", "value": "2.803 ± 0.3", "unit": "mPa·s"}, {"measurement": "viscosity", "setting": "293.15 K, 101.33 kPa, x1 = 0.1976", "value": "2.748 ± 0.3", "unit": "mPa·s"}, {"measurement": "viscosity", "setting": "293.15 K, 101.33 kPa, x1 = 0.3075", "value": "2.685 ± 0.3", "unit": "mPa·s"}, {"measurement": "viscosity", "setting": "293.15 K, 101.33 kPa, x1 = 0.4014", "value": "2.633 ± 0.29", "unit": "mPa·s"}, {"measurement": "viscosity", "setting": "293.15 K, 101.33 kPa, x1 = 0.5022", "value": "2.578 ± 0.29", "unit": "mPa·s"}, {"measurement": "viscosity", "setting": "293.15 K, 101.33 kPa, x1 = 0.5973", "value": "2.527 ± 0.28", "unit": "mPa·s"}, {"measurement": "viscosity", "setting": "293.15 K, 101.33 kPa, x1 = 0.7048", "value": "2.471 ± 0.28", "unit": "mPa·s"}, {"measurement": "viscosity", "setting": "293.15 K, 101.33 kPa, x1 = 0.8005", "value": "2.422 ± 0.27", "unit": "mPa·s"}, {"measurement": "viscosity", "setting": "293.15 K, 101.33 kPa, x1 = 0.8914", "value": "2.376 ± 0.27", "unit": "mPa·s"}, {"measurement": "viscosity", "setting": "303.15 K, 101.33 kPa, x1 = 0.1023", "value": "2.224 ± 0.26", "unit": "mPa·s"}, {"measurement": "viscosity", "setting": "303.15 K, 101.33 kPa, x1 = 0.1976", "value": "2.18 ± 0.26", "unit": "mPa·s"}, {"measurement": "viscosity", "setting": "303.15 K, 101.33 kPa, x1 = 0.3075", "value": "2.129 ± 0.25", "unit": "mPa·s"}, {"measurement": "viscosity", "setting": "303.15 K, 101.33 kPa, x1 = 0.4014", "value": "2.087 ± 0.25", "unit": "mPa·s"}, {"measurement": "viscosity", "setting": "303.15 K, 101.33 kPa, x1 = 0.5022", "value": "2.043 ± 0.24", "unit": "mPa·s"}, {"measurement": "viscosity", "setting": "303.15 K, 101.33 kPa, x1 = 0.5973", "value": "2.002 ± 0.24", "unit": "mPa·s"}, {"measurement": "viscosity", "setting": "303.15 K, 101.33 kPa, x1 = 0.7048", "value": "1.957 ± 0.24", "unit": "mPa·s"}, {"measurement": "viscosity", "setting": "303.15 K, 101.33 kPa, x1 = 0.8005", "value": "1.918 ± 0.23", "unit": "mPa·s"}, {"measurement": "viscosity", "setting": "303.15 K, 101.33 kPa, x1 = 0.8914", "value": "1.881 ± 0.23", "unit": "mPa·s"}, {"measurement": "viscosity", "setting": "313.15 K, 101.33 kPa, x1 = 0.1023", "value": "1.66 ± 0.21", "unit": "mPa·s"}, {"measurement": "viscosity", "setting": "313.15 K, 101.33 kPa, x1 = 0.1976", "value": "1.641 ± 0.21", "unit": "mPa·s"}, {"measurement": "viscosity", "setting": "313.15 K, 101.33 kPa, x1 = 0.3075", "value": "1.619 ± 0.21", "unit": "mPa·s"}, {"measurement": "viscosity", "setting": "313.15 K, 101.33 kPa, x1 = 0.4014", "value": "1.6 ± 0.21", "unit": "mPa·s"}, {"measurement": "viscosity", "setting": "313.15 K, 101.33 kPa, x1 = 0.5022", "value": "1.581 ± 0.21", "unit": "mPa·s"}, {"measurement": "viscosity", "setting": "313.15 K, 101.33 kPa, x1 = 0.5973", "value": "1.562 ± 0.2", "unit": "mPa·s"}, {"measurement": "viscosity", "setting": "313.15 K, 101.33 kPa, x1 = 0.7048", "value": "1.542 ± 0.2", "unit": "mPa·s"}, {"measurement": "viscosity", "setting": "313.15 K, 101.33 kPa, x1 = 0.8005", "value": "1.524 ± 0.2", "unit": "mPa·s"}, {"measurement": "viscosity", "setting": "313.15 K, 101.33 kPa, x1 = 0.8914", "value": "1.507 ± 0.2", "unit": "mPa·s"}, {"measurement": "viscosity", "setting": "323.15 K, 101.33 kPa, x1 = 0.1023", "value": "1.104 ± 0.17", "unit": "mPa·s"}, {"measurement": "viscosity", "setting": "323.15 K, 101.33 kPa, x1 = 0.1976", "value": "1.116 ± 0.17", "unit": "mPa·s"}, {"measurement": "viscosity", "setting": "323.15 K, 101.33 kPa, x1 = 0.3075", "value": "1.131 ± 0.17", "unit": "mPa·s"}, {"measurement": "viscosity", "setting": "323.15 K, 101.33 kPa, x1 = 0.4014", "value": "1.144 ± 0.17", "unit": "mPa·s"}, {"measurement": "viscosity", "setting": "323.15 K, 101.33 kPa, x1 = 0.5022", "value": "1.158 ± 0.17", "unit": "mPa·s"}, {"measurement": "viscosity", "setting": "323.15 K, 101.33 kPa, x1 = 0.5973", "value": "1.172 ± 0.17", "unit": "mPa·s"}, {"measurement": "viscosity", "setting": "323.15 K, 101.33 kPa, x1 = 0.7048", "value": "1.187 ± 0.17", "unit": "mPa·s"}, {"measurement": "viscosity", "setting": "323.15 K, 101.33 kPa, x1 = 0.8005", "value": "1.201 ± 0.18", "unit": "mPa·s"}, {"measurement": "viscosity", "setting": "323.15 K, 101.33 kPa, x1 = 0.8914", "value": "1.214 ± 0.18", "unit": "mPa·s"}]}
{"smiles": "CCCCCCCCCCCCCCCC", "note": "+ CCCCO", "values": [{"measurement": "viscosity", "setting": "298.15 K, 101 kPa, x2 = 0.3", "value": "2.675 ± 0.017", "unit": "mPa·s"}, {"measurement": "viscosity", "setting": "323.15 K, 101 kPa, x2 = 0.8", "value": "1.435 ± 0.011", "unit": "mPa·s"}]}
{"smiles": "ClC(Cl)Cl", "note": "+ CCCCO", "values": [{"measurement": "viscosity", "setting": "303.15 K, 101 kPa, x2 = 0.0563", "value": "0.5315 ± 0.0045", "unit": "mPa·s"}, {"measurement": "viscosity", "setting": "303.15 K, 101 kPa, x2 = 0.0995", "value": "0.5491 ± 0.0046", "unit": "mPa·s"}, {"measurement": "viscosity", "setting": "303.15 K, 101 kPa, x2 = 0.1395", "value": "0.5709 ± 0.0048", "unit": "mPa·s"}, {"measurement": "viscosity", "setting": "303.15 K, 101 kPa, x2 = 0.1858", "value": "0.6001 ± 0.005", "unit": "mPa·s"}, {"measurement": "viscosity", "setting": "303.15 K, 101 kPa, x2 = 0.2305", "value": "0.6329 ± 0.0053", "unit": "mPa·s"}, {"measurement": "viscosity", "setting": "303.15 K, 101 kPa, x2 = 0.2878", "value": "0.6839 ± 0.0056", "unit": "mPa·s"}, {"measurement": "viscosity", "setting": "303.15 K, 101 kPa, x2 = 0.301", "value": "0.6958 ± 0.0057", "unit": "mPa·s"}, {"measurement": "viscosity", "setting": "303.15 K, 101 kPa, x2 = 0.3666", "value": "0.7663 ± 0.0063", "unit": "mPa·s"}, {"measurement": "viscosity", "setting": "303.15 K, 101 kPa, x2 = 0.4891", "value": "0.9373 ± 0.0075", "unit": "mPa·s"}, {"measurement": "viscosity", "setting": "303.15 K, 101 kPa, x2 = 0.5662", "value": "1.076 ± 0.0085", "unit": "mPa·s"}, {"measurement": "viscosity", "setting": "303.15 K, 101 kPa, x2 = 0.6718", "value": "1.314 ± 0.01", "unit": "mPa·s"}, {"measurement": "viscosity", "setting": "303.15 K, 101 kPa, x2 = 0.7659", "value": "1.574 ± 0.012", "unit": "mPa·s"}, {"measurement": "viscosity", "setting": "303.15 K, 101 kPa, x2 = 0.8333", "value": "1.78 ± 0.014", "unit": "mPa·s"}, {"measurement": "viscosity", "setting": "303.15 K, 101 kPa, x2 = 0.9386", "value": "2.107 ± 0.016", "unit": "mPa·s"}, {"measurement": "viscosity", "setting": "303.15 K, 101.3 kPa, x2 = 0.0563", "value": "0.5315 ± 0.014", "unit": "mPa·s"}, {"measurement": "viscosity", "setting": "303.15 K, 101.3 kPa, x2 = 0.0995", "value": "0.5491 ± 0.015", "unit": "mPa·s"}, {"measurement": "viscosity", "setting": "303.15 K, 101.3 kPa, x2 = 0.1395", "value": "0.5709 ± 0.015", "unit": "mPa·s"}, {"measurement": "viscosity", "setting": "303.15 K, 101.3 kPa, x2 = 0.1858", "value": "0.6001 ± 0.016", "unit": "mPa·s"}, {"measurement": "viscosity", "setting": "303.15 K, 101.3 kPa, x2 = 0.2305", "value": "0.6329 ± 0.017", "unit": "mPa·s"}, {"measurement": "viscosity", "setting": "303.15 K, 101.3 kPa, x2 = 0.2878", "value": "0.6839 ± 0.018", "unit": "mPa·s"}, {"measurement": "viscosity", "setting": "303.15 K, 101.3 kPa, x2 = 0.301", "value": "0.6958 ± 0.018", "unit": "mPa·s"}, {"measurement": "viscosity", "setting": "303.15 K, 101.3 kPa, x2 = 0.3666", "value": "0.7663 ± 0.02", "unit": "mPa·s"}, {"measurement": "viscosity", "setting": "303.15 K, 101.3 kPa, x2 = 0.4891", "value": "0.9373 ± 0.025", "unit": "mPa·s"}, {"measurement": "viscosity", "setting": "303.15 K, 101.3 kPa, x2 = 0.5662", "value": "1.076 ± 0.028", "unit": "mPa·s"}, {"measurement": "viscosity", "setting": "303.15 K, 101.3 kPa, x2 = 0.6718", "value": "1.314 ± 0.035", "unit": "mPa·s"}, {"measurement": "viscosity", "setting": "303.15 K, 101.3 kPa, x2 = 0.7659", "value": "1.574 ± 0.042", "unit": "mPa·s"}, {"measurement": "viscosity", "setting": "303.15 K, 101.3 kPa, x2 = 0.8333", "value": "1.78 ± 0.047", "unit": "mPa·s"}, {"measurement": "viscosity", "setting": "303.15 K, 101.3 kPa, x2 = 0.9386", "value": "2.107 ± 0.056", "unit": "mPa·s"}]}
{"smiles": "ClC(Cl)Cl", "note": "+ CCCCn1cc[n+](C)c1.F[B-](F)(F)F", "values": [{"measurement": "viscosity", "setting": "298.15 K, 101 kPa, x1 = 0.1079", "value": "92.5 ± 24", "unit": "mPa·s"}, {"measurement": "viscosity", "setting": "298.15 K, 101 kPa, x1 = 0.2033", "value": "73.3 ± 12", "unit": "mPa·s"}, {"measurement": "viscosity", "setting": "298.15 K, 101 kPa, x1 = 0.7028", "value": "9.24 ± 1.1", "unit": "mPa·s"}]}
